Data published in US20250034194A1, “INHIBITORS OF ABNORMAL PHOSPHORYLATION AND TAU PROTEIN AGGREGATION” (UNIVERSITE DE PICARDIE JULES VERNE, priority 2021, published 2025).

Columns and labels:
[1] = biological target: T1, tau protein (4R2N isoform, 441 amino acids) (Homo sapiens, UniProt P10636); test: Induction of tau protein aggregation, Thioflavin T incorporation; type: biochemical; settings: tau 0.71 mg/mL, compound 0.175 mg/mL (mass ratio 4/1); up to 72 h
T1 construct: purchased Tebu-bio (custom synthesized)
Experimental: The ability of the 16-carbon disulphated maltobionamide compound “Mal16diS” to induce tau protein aggregation, another step in the occurrence of neurofibrillary tangles, was evaluated. Thus, the ability of this molecule to induce or inhibit the aggregation of tau in vitro (FIG. 10) was evaluated in a test described in the article by Sui et al, 2015 in which tau aggregation is monitored by the incorporation of Thioflavin T (ThT). […]
100 μL of ThT (Sigma-Aldrich) at 50 μM is immediately added to each well, then the plate is incubated at 37° C. with stirring. Monitoring the formation of tau protein aggregates is possible by monitoring the incorporation of thioflavin leading to its fluorescence emission and is carried out by reading at 0, 24, 40, 48 and 71 h at Exc wavelength 450 nm/Em wavelength 510 nm, by means of an Infinite M1000 spectrofluorometer (Tecan).

[2] = biological target: T2, tau protein (4R2N, 441 amino acids) (Homo sapiens, UniProt P10636); test: In vitro abnormal tau phosphorylation by GSK3β, competition with heparin (western blot); type: biochemical
T2 construct: purchased Millipore (tau); Promega (GSK3β)
Description: Phosphorylation of tau protein is the most common post-translational modification to regulate tau activity and functions. The longest tau isoform (4R2N, 441 amino acids) containing 85 potential phosphorylation sites was used. In vitro phosphorylation of the tau protein is done by induction, on the one hand, (FIG. 5) and, on the other hand, according to a competition process between the LG2A molecules and heparin, conventionally used to induce abnormal tau phosphorylation in vitro (FIGS. 3, 4, 6, 7, 8, 9 and 10).
For abnormal tau phosphorylation tests, GSK3p, a kinase centrally involved in this process in the brains of subjects with Alzheimer's disease (AD), was used. Analysis of tau phosphorylation by GSK3b at sites characteristic of AD is possible by the western blot technique using specific antibodies that recognize abnormally phosphorylated sites in the brain or cerebrospinal fluid of AD subjects, such as the AT270 antibody which recognizes threonine 181 (Thr181), the PHF1 antibody which recognizes serines 396 and 404 (Ser396/Ser404), and the AT8 antibody, which recognizes the Ser199/Ser202/Thr205 site.
By competition: The tau protein (40 μg/mL) is phosphorylated by the GSK3β enzyme at 4 ng/mL (Promega) in the presence of ATP (Sigma-Aldrich) at 48 μM and protease inhibitors (Sigma-Aldrich, 1/100), in the buffer mentioned above. The ability of the LG2A molecules (60 μg/mL) to compete with heparin (12 μg/mL; Sigma-Aldrich) is evaluated. Thus if the signal in the presence of the molecules is less than that obtained with heparin alone, the molecules are then defined as “protectors” from abnormal tau phosphorylation.
In both systems (induction or competition), the tau protein is incubated at 37° C. with stirring in the presence of the different elements presented above. The reaction kinetics are monitored by taking 8 μL of the samples at 1.5 h, 3 h and 6 h of incubation. Loading buffer (Euromedex) and β-mercaptoethanol (Sigma-Aldrich) are added to each sample. The samples are then stored at −20° C. until analysis by western blot.
After denaturation of the samples by heating at 95° C. for 5 minutes, the samples are deposited simultaneously with the molecular weight marker (Precision Plus Protein™ Dual Color Standards; BIO-RAD) on a 10% acrylamide gel placed in an electrophoresis tank containing migration buffer (0.25 M Tris; 1.6 M Glycine; […]; pH 8.6).
The controls used for this phosphorylation experiment followed by western blot are: • the “native tau” protein, that is to say the non-phosphorylated tau protein. • the tau protein phosphorylated by GSK3b alone in the absence of heparin. • the tau protein phosphorylated in the presence of heparin, denoted “tau+heparin”. • the “external standard” corresponding to the tau protein phosphorylated in the presence of heparin for 3 h. This standard is carried out in an experiment independently of the phosphorylation experiments in the presence of LG2A compounds. It ensures that the western blot is carried out correctly.
Then the membrane is incubated overnight with stirring at +4° C. in a solution of PBS, 0.1% Tween and 1% milk containing the primary antibody specific for tau phosphorylation sites (AT270, ThermoScientific or S199-202, Millipore).
After incubation of the PVDF membrane in the chosen primary antibody, a succession of 3 washes of 5 minutes of the membrane is carried out in PBS and 0.1% Tween with stirring and the membrane is incubated for 1 h with stirring at room temperature in a solution of 1×PBS, 0.1% Tween and 1% milk containing the diluted secondary antibody (Jackson Immuno-Research).

T2 sequence (P10636 1-441 isoform P10636-8): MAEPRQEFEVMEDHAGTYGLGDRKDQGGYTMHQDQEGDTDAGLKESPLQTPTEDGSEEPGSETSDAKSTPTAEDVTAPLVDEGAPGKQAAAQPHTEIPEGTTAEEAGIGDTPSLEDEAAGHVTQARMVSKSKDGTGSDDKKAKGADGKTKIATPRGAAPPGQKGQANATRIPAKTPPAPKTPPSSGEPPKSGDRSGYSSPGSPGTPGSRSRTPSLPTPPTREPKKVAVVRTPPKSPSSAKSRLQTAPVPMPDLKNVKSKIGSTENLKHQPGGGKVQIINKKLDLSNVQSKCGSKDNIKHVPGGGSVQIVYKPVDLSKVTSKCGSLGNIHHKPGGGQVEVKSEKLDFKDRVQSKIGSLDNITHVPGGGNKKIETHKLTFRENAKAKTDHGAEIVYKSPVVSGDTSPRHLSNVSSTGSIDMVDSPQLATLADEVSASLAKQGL
T1 sequence (P10636 1-441 isoform P10636-8): as above

## CCCCCCCCCCCCCCCCNC(=O)[C@H](O)[C@@H](O)[C@H](O[C@H]1OC(COS(=O)(=O)[O-])[C@@H](O)C(O)[C@@H]1O)[C@H](O)COS(=O)(=O)[O-].[Na+].[Na+] (stereo partly drawn) [Mal16diS, N-Hexadecyl-6,6′-Di-O-Sulfo-D-Maltobioamide Disodium]
[1]
  induction of tau protein aggregation (Thioflavin-T): induces the aggregation of tau protein more weakly compared to heparin
[2]; in presence of heparin, after 3 h of reaction
  abnormal phosphorylation of tau (p-tau) revealed by AT270 and Ser199/202 antibodies: inhibited
[2]; molecule 60 μg/mL vs heparin 12 μg/mL, 1.5 to 6 h of reaction, AT270, Ser199/202
  ability to compete with heparin for abnormal tau phosphorylation by GSK3β: total competition with heparin
